Earlier results in EP0268925B1, “Safened pesticidal resin compositions for controlling soil borne pests and process for the preparation thereof” (priority 1986, dated 1988).

Assays:
[1] = tested on: rats; settings: technical material
[2] = inhalation hazard

Row | Structure (SMILES) | acute oral LD50 value in rats [1] | inhalation LD50 [2]
1 | CCOP(=S)(OCC)SCSCC [phorate, O,O-diethyl-S-(ethylthiomethyl)phosphorodithioate] | 1.6-3.7 mg technical/kg | 35 mg/kg body weight
2 | CCOP(=S)(OCC)SCSC(C)(C)C [terbufos, O,O-diethyl S-[[(1,1-dimethylethyl)thio]methyl]phosphorodithioate] | 1.6 mg technical/kg | 35 mg/kg body weight
